Assay results reported in patent publication US20250134874A1, “PHARMACEUTICAL FORMULATIONS COMPRISING 3-({[(4R)-7-{METHYL[4-(PROPAN-2-YL)PHENYL]AMINO}-3,4-DIHYDRO-2H-1-BENZOPYRAN-4-YL]METHYL}AMINO)PYRIDINE-4-CARBOXYLIC ACID” (TACHYON THERAPEUTICS, INC., priority 2021, published 2025).

Tested on: 301 cancer cell lines from different tumor types (OncoPanel; HD Biosciences)
Assay: 2D cell viability inhibition assay (CellTiter-Glo) in cancer cell line panel
Format: cell-based
Parameters: key to AUC: AUC as fraction of the no-inhibition area (dose range × 0–100 % of control)
Details: for Emax: in %
Experimental: In a larger screening study, compound 1 was evaluated across a broad cancer cell line panel (OncoPanel; HD Biosciences) composed of 301 cancer cell lines from different tumor types.
2D cell viability inhibition assays were performed in multiwell plates seeded with cells from the panel. After seeding, the plates were cultured overnight in a humidified incubator at 37° C. to promote adherence. Assays were initiated in individual wells by adding either DMSO as a vehicle control, growth media as a blank, or serially diluted compound 1 (10 μM to 0.0005 μM with 1:3 serial dilution). Cultures were incubated for 168 hours after which the number of viable cells in each test well was assessed using the CellTiter-Glo® Luminescent Cell Viability Assay. Luminescence readouts were performed using an EnVision® Multilabel Reader and the compound 1 readouts were normalized to the DMSO control readouts, expressed as a percent of the control. Outliers were flagged out by visual inspection. Percent of control was plotted against the corresponding compound 1 concentration and the absolute IC50 value was determined using four-parameter logistic non-linear regression as the concentration where inhibition was 50% of the control. For maximum inhibition <50%, the absolute IC50 was reported as >10. In addition to EC50 and IC50, AUC was determined and was normalized to the area corresponding to theoretical no-inhibition (the rectangular area defined by the compound dose range and 0 to 100 in y). Emax was recorded as the minimum in y with the compound dose range. For those cell lines where Emax>40, EC50 was manually set to 10 μM. A hierarchical clustering algorithm based on Euclidean distance between the standardized input values and “Ward.D” method as implemented in R hclust function was used to visualize the compound 1 cellular potency data. The sensitive/moderate/resistant calls for each cell line was determined by visually inspecting the resulting clustering dendrogram. All the analyses were done in R Core Team.

SMILES: CC(C)c1ccc(N(C)c2ccc3c(c2)OCC[C@H]3CNc2cnccc2C(=O)O)cc1 [Compound 1, 3-({[(4R)-7-{methyl[4-(propan-2-yl)phenyl]amino}-3,4-dihydro-2H-1-benzopyran-4-yl]methyl}amino)pyridine-4-carboxylic acid]
- AUC (NCIH23 cell line): 0.6227
- AUC (NCIH69 cell line): 0.2802
- Emax (NCIH69 cell line): 1.271
- AUC (NCIH82 cell line): 0.2502
- AUC (NCIH209 cell line): 0.1869
- Emax (NCIH209 cell line): 8.61
- AUC (NCIH358 cell line): 0.4332
- Emax (NCIH358 cell line): 22.66
- AUC (NCIH441, lung, adenocarcinoma, 168 hours): 0.7804
- AUC (NCIH446 cell line): 0.5837
- AUC (NCIH460 cell line): 0.3714
- Emax (NCIH460 cell line): 7.705
- AUC (NCIH508 cell line): 0.3378
- Emax (NCIH508 cell line): 3.207
- AUC (NCIH520 cell line): 0.3237
- AUC (NCIH522 cell line): 0.4447
- Emax (NCIH522 cell line): 15.14
- AUC (NCIH524 cell line): 0.3617
- Emax (NCIH524 cell line): 12.7766
- AUC (NCIH596, lung, mixed adenosquamous carcinoma, 168 hours): 0.8151
- AUC (NCIH647 cell line): 0.4942
- Emax (NCIH647 cell line): 28.29
- AUC (NCIH661 cell line): 0.3608
- Emax (NCIH661 cell line): 9.075
- AUC (NCIH716 cell line): 0.3799
- Emax (NCIH716 cell line): 12.75
- AUC (NCIH929 cell line): 0.5285
- AUC (NCIH1048 cell line): 0.1479
- AUC (NCIH1092 cell line): 0.479
- Emax (NCIH1092 cell line): 26.4
- AUC (NCIH1155 cell line): 0.07571
- AUC (NCIH1299 cell line): 0.3508
- Emax (NCIH1299 cell line): 12.65
- AUC (NCIH1355 cell line): 0.5594
- AUC (NCIH1395, lung, adenocarcinoma, 168 hours): 0.8542
- AUC (NCIH1435, lung, non-small cell carcinoma, 168 hours): 0.7612
- AUC (NCIH1436 cell line): 0.4953
- Emax (NCIH1436 cell line): 34.4
- AUC (NCIH1437 cell line): 0.4082
- Emax (NCIH1437 cell line): 14.97
- AUC (NCIH1563, lung, adenocarcinoma, 168 hours): 0.9652
- AUC (NCIH1573, lung, adenocarcinoma, 168 hours): 0.7482
- AUC (NCIH1618 cell line): 0.02266
- EC50 (NCIH1618 cell line): 0.508 nM
- IC50 (NCIH1618 cell line): < 0.5 nM
- AUC (NCIH1623 cell line): 0.522
- AUC (NCIH1650, lung, bronchioloalveolar adenocarcinoma, 168 hours): 0.8746
- AUC (NCIH1666 cell line): 0.2983
- AUC (NCIH1694 cell line): 0.3214
- Emax (NCIH1694 cell line): 21.59
- AUC (NCIH1703 cell line): 0.4204
- Emax (NCIH1703 cell line): 21.7324
- AUC (NCIH1734 cell line): 0.6734
- AUC (NCIH1755, lung, adenocarcinoma, 168 hours): 1.29
- AUC (NCIH1793 cell line): 0.4916
- Emax (NCIH1793 cell line): 27.48
- AUC (NCIH1836 cell line): 0.3332
- AUC (NCIH1838, lung, non-small cell carcinoma, 168 hours): 0.7858
- AUC (NCIH1930 cell line): 0.5402
- AUC (NCIH1944 cell line): 0.5809
- Emax (NCIH1944 cell line): 37.59
- AUC (NCIH1975 cell line): 0.529
- AUC (NCIH2009, lung, adenocarcinoma, 168 hours): 0.7914
- AUC (NCIH2023 cell line): 0.2884
- AUC (NCIH2081 cell line): 0.3049
- AUC (NCIH2087 cell line): 0.3822
- AUC (NCIH2122 cell line): 0.5019
- AUC (NCIH2171 cell line): 0.7416
- AUC (NCIH2172 cell line): 0.6812
- AUC (NCIH2228 cell line): 0.6864
- AUC (NCIH2286 cell line): 0.2917
- AUC (NCIH2291 cell line): 0.3822
- Emax (NCIH2291 cell line): 13.48
- AUC (NCIH2347 cell line): 0.5778
- Emax (NCIH2347 cell line): 40.29
- AUC (NCIN87 cell line): 0.3132
- AUC (NIHOVCAR3, ovary, NS, 168 hours): 0.7771
- AUC (NMCG1, central nervous system, NS, 168 hours): 0.7013
- AUC (NOMO1 cell line): 0.3293
- AUC (NUGC3 cell line): 0.3824
- Emax (NUGC3 cell line): 16
- AUC (NUGC4 cell line): 0.4642
- Emax (NUGC4 cell line): 24.53
- EC50 (OCUM1, OCUM1 cell line): ≥ 10000 nM
- IC50 (OCUM1, OCUM1 cell line): 7.79 nM
- AUC (OCUM1 cell line): 0.5324
- Emax (OCUM1 cell line): 32.42
- AUC (ONS76, central nervous system, NS, 168 hours): 0.7336
- AUC (OSRC2 cell line): 0.6658
- AUC (OVISE cell line): 0.5405
- IC50 (OVISE cell line): 24 nM
- AUC (P31FUJ cell line): 0.286
- AUC (PANC1 cell line): 0.5543
- AUC (PANC0213 cell line): 0.5829
- EC50 (PANC0213 cell line): 21.5 nM
- IC50 (PANC0213 cell line): 35.8 nM
- AUC (PC3 cell line): 0.502
- Emax (PC3 cell line): 26.1466
- AUC (PECAPJ34CLONEC12 cell line): 0.311
- EC50 (PECAPJ34CLONEC12 cell line): 3.81 nM
- IC50 (PECAPJ34CLONEC12 cell line): 3.97 nM
- AUC (PF382 cell line): 0.2761
- AUC (PLCPRF5 cell line): 0.5107
- AUC (RCM1 cell line): 0.6711
- AUC (RD cell line): 0.4703
- Emax (RD cell line): 27.42
- AUC (REH cell line): 0.0957
- AUC (RERFLCMS cell line): 0.6415
- EC50 (RERFLCMS cell line): 23.5 nM
- IC50 (RERFLCMS cell line): 65.9 nM
- AUC (RKO cell line): 0.3827
- Emax (RKO cell line): 11.05
- AUC (RL cell line): 0.2366
